What all share (test): cell-based
One test has as its target hNav1.3 (Homo sapiens, UniProt Q9NY46). The settings on record: IonWorks Quattro, read-out: IWQ Use Nav1.3. (The patch-clamp technique gives a direct electrical read-out from membranes.)
The target in another test is hNav1.5 (Homo sapiens, UniProt Q14524).
For a further test, the target named is hNav1.7 (Homo sapiens, UniProt Q15858). Format: cell-based.
[1] abbreviates: IonWorks Quattro, Use, read-out: IWQ Use Nav1.5.
[2] abbreviates: IonWorks Quattro, Use, read-out: IWQ Use Nav1.7.

Where two headings read alike, the source gives them in different places. Positions of bridges follow the written chain, without caps; N, C: chain ends. Residues, ends and D or L forms follow the SMILES beside them.

Among the data in patent US9340590B2 (priority 2011, dated 2016) are IC50 values, retold here.

hNav1.7, sequence (Q15858 whole entry, looked up): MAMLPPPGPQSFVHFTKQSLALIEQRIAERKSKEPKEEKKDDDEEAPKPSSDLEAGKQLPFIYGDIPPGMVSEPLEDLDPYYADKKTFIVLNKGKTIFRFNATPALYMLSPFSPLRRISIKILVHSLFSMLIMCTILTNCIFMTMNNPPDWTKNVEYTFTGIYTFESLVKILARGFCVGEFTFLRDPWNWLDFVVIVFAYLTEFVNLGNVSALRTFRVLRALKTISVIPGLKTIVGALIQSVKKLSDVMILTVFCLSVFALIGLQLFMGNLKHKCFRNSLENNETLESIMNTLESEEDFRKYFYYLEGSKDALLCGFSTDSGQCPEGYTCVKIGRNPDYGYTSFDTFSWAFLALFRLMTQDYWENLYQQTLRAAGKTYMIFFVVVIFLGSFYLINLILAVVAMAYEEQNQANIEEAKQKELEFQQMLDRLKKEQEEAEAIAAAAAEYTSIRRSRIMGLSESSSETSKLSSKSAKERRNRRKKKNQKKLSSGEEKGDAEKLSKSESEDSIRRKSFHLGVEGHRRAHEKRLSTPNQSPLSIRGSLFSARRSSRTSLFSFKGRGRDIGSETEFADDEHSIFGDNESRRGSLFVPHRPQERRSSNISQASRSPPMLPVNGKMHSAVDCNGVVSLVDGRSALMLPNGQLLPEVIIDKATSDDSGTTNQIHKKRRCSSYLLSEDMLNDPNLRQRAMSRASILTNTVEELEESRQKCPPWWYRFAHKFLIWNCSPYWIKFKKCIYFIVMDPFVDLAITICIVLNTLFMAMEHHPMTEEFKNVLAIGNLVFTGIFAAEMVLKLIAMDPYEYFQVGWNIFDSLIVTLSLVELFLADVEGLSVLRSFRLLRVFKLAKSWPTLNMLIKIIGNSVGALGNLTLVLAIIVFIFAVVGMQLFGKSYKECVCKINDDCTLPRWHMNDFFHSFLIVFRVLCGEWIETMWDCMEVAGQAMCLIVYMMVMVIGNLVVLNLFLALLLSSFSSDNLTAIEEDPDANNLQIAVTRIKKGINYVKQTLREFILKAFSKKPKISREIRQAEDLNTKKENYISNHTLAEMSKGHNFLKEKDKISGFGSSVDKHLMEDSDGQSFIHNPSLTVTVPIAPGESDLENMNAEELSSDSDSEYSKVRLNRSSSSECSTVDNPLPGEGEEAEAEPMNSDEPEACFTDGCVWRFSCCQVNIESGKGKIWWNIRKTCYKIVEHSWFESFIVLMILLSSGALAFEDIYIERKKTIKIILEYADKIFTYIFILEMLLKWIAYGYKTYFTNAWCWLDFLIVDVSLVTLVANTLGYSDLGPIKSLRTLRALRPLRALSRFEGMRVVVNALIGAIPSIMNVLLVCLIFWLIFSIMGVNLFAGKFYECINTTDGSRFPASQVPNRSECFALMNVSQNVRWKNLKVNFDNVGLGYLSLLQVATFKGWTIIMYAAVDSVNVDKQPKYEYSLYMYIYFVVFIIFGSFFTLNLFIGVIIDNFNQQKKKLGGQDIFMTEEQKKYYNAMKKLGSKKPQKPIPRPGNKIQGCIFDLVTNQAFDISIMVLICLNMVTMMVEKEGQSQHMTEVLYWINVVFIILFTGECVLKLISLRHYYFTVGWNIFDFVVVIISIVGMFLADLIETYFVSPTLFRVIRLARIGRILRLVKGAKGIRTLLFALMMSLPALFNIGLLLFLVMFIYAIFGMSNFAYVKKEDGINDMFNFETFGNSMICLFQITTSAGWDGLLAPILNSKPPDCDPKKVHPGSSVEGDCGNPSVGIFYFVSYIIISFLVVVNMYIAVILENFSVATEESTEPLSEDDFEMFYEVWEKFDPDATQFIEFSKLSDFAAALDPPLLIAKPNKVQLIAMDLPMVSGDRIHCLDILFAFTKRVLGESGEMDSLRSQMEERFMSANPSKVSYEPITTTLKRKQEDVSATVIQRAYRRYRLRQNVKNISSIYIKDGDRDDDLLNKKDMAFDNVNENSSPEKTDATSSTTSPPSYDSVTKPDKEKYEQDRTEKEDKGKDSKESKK
hNav1.5, sequence (Q14524 whole entry, looked up): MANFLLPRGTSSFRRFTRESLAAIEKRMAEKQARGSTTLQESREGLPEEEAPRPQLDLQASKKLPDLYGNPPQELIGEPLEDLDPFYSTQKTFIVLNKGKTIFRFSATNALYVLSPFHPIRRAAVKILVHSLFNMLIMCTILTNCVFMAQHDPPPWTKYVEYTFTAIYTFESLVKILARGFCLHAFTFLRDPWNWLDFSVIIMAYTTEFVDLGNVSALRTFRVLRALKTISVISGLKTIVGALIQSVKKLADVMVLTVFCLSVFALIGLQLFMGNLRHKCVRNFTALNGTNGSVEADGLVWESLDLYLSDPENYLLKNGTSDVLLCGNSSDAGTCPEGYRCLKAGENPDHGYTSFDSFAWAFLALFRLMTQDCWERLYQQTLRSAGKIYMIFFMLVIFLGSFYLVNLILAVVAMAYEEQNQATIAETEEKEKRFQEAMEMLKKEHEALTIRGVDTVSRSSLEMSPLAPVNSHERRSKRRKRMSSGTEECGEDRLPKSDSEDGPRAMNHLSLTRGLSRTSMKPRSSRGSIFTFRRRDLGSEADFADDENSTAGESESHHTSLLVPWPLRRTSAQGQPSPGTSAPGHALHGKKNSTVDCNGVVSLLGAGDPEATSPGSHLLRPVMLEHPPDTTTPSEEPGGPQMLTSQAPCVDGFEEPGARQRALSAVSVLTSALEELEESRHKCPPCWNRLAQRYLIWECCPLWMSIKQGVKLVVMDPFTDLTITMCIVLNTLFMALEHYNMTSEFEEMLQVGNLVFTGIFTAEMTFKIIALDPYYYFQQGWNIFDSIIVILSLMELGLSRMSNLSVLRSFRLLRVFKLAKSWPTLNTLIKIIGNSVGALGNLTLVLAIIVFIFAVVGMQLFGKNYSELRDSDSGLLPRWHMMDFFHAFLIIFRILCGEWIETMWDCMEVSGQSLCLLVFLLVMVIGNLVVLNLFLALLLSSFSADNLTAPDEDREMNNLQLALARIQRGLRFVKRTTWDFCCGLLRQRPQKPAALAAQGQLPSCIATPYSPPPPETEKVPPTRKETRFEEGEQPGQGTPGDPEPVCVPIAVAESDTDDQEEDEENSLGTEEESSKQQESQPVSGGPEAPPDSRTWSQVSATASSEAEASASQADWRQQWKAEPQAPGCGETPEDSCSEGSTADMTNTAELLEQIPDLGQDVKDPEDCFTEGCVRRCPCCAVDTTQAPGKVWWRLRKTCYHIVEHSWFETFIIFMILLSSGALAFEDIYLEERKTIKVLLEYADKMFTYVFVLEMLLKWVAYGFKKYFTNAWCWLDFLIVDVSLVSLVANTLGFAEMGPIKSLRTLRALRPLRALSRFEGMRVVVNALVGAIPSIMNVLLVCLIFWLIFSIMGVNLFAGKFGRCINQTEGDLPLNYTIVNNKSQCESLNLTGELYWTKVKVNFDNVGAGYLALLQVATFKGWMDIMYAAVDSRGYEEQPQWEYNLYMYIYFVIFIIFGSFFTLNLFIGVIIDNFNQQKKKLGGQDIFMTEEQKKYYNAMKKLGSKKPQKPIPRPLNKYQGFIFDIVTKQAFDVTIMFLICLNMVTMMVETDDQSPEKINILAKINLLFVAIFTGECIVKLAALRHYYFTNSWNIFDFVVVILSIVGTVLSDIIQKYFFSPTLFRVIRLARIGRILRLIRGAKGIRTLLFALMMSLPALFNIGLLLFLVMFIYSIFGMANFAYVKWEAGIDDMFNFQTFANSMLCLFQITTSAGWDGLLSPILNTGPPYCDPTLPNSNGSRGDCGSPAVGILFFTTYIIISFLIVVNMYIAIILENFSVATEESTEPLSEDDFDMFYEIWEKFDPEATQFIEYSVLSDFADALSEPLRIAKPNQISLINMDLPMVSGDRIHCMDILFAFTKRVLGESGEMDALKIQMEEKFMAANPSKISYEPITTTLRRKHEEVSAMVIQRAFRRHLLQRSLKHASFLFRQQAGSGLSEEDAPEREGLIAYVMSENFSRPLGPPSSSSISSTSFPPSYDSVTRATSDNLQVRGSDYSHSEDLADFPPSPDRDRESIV

As to `CC[C@H](C)[C@@H]1NC(=O)[C@@H]2CSSC[C@@H]3NC(=O)[C@H](C(C)C)NC(=O)[C@H](CC(C)C)NC(=O)[C@H](CC(N)=O)NC(=O)[C@@H]4CCCN4C(=O)[C@H](CCCNC(=N)N)NC(=O)[C@H](CSSC[C@H](NC(=O)[C@@H](N)CC(=O)O)C(=O)N[C@@H](CC(C)C)C(=O)NCC(=O)N[C@@H](Cc4ccccc4)C(=O)N[C@@H](CCSC)C(=O)N[C@@H](CCCNC(=N)N)C(=O)N[C@@H](CCCCN)C(=O)N2)NC(=O)[C@H](CSSC[C@@H](C(=O)N[C@@H](CCCCN)C(=O)N[C@@H](Cc2ccc(O)cc2)C(=O)N[C@H](C(=O)N[C@@H](Cc2ccccc2)C(N)=O)C(C)C)NC(=O)[C@H](Cc2c[nH]c4ccccc24)NC(=O)[C@H](CCCCN)NC(=O)[C@H](Cc2cnc[nH]2)NC(=O)[C@H]([C@@H](C)O)NC(=O)[C@H](CCCNC(=N)N)NC(=O)[C@H](CO)NC3=O)NC(=O)[C@H](CCCCN)NC(=O)[C@H](CC(=O)O)NC(=O)[C@H](C)NC(=O)[C@H](CC(=O)O)NC(=O)[C@@H]2CCCN2C1=O` [compound 5] (H-DCLGFMRKCIPDADKCCRPNLVCSRTHKWCKYVF-NH2; disulfide 2-17, 9-23, 16-30), the IC50 on hNav1.3 (Use) was determined as 160 nM; on hNav1.5 (setting [1]), 8.15 µM; on hNav1.7 (setting [2]) it was 170 nM.

With `CC[C@H](C)[C@@H]1NC(=O)[C@@H]2CSSC[C@@H]3NC(=O)[C@H](C(C)C)NC(=O)[C@H](CC(C)C)NC(=O)[C@H](CC(N)=O)NC(=O)[C@@H]4CCCN4C(=O)[C@H](CCCNC(=N)N)NC(=O)[C@H](CSSC[C@H](NC(=O)[C@@H](N)CC(=O)O)C(=O)N[C@@H](CC(C)C)C(=O)NCC(=O)N[C@@H](Cc4ccccc4)C(=O)N[C@@H](CCSC)C(=O)N[C@@H](CCCNC(=N)N)C(=O)N[C@@H](CCCCN)C(=O)N2)NC(=O)[C@H](CSSC[C@@H](C(=O)N[C@@H](CCCCN)C(=O)N[C@@H](Cc2ccc(O)cc2)C(=O)N[C@H](C(=O)N[C@@H](Cc2ccccc2)C(N)=O)C(C)C)NC(=O)[C@H](Cc2c[nH]c4ccccc24)NC(=O)[C@H](CCCCN)NC(=O)[C@H](Cc2cnc[nH]2)NC(=O)[C@H]([C@@H](C)O)NC(=O)[C@H](CCCNC(=N)N)NC(=O)[C@H](CO)NC3=O)NC(=O)[C@H](C)NC(=O)[C@H](CC(=O)O)NC(=O)[C@H](CC(N)=O)NC(=O)[C@H](CC(=O)O)NC(=O)[C@@H]2CCCN2C1=O` [compound 6] (H-DCLGFMRKCIPDNDACCRPNLVCSRTHKWCKYVF-NH2; disulfide 2-17, 9-23, 16-30), the values for the IC50 on hNav1.3 (Use), at hNav1.5 (setting [1]) and at hNav1.7 (setting [2]) were 190 nM, 9.64 µM and 220 nM, respectively.

For `CC[C@H](C)[C@@H]1NC(=O)[C@@H]2CSSC[C@@H]3NC(=O)[C@H](C(C)C)NC(=O)[C@H](CC(C)C)NC(=O)[C@H](CC(N)=O)NC(=O)[C@@H]4CCCN4C(=O)[C@H](CCCNC(=N)N)NC(=O)[C@H](CSSC[C@H](NC(=O)[C@@H](N)CC(=O)O)C(=O)N[C@@H](CC(C)C)C(=O)NCC(=O)N[C@@H](Cc4ccccc4)C(=O)N[C@@H](CCSC)C(=O)N[C@@H](CCCNC(=N)N)C(=O)N[C@@H](CCCCN)C(=O)N2)NC(=O)[C@H](CSSC[C@@H](C(=O)N[C@@H](CCCCN)C(=O)N[C@@H](Cc2ccc(O)cc2)C(=O)N[C@H](C(=O)N[C@@H](Cc2ccccc2)C(N)=O)C(C)C)NC(=O)[C@H](Cc2c[nH]c4ccccc24)NC(=O)[C@H](CCCCN)NC(=O)[C@H](Cc2cnc[nH]2)NC(=O)[C@H]([C@@H](C)O)NC(=O)[C@H](C)NC(=O)[C@H](CO)NC3=O)NC(=O)[C@H](CCCCN)NC(=O)[C@H](CC(=O)O)NC(=O)[C@H](CC(N)=O)NC(=O)[C@H](CC(=O)O)NC(=O)[C@@H]2CCCN2C1=O` [compound 9] (H-DCLGFMRKCIPDNDKCCRPNLVCSATHKWCKYVF-NH2; disulfide 2-17, 9-23, 16-30), the IC50 at hNav1.3 (Use) was determined as 840 nM; on hNav1.5 (setting [1]), 18.8 µM; against hNav1.7 it was 300 nM.

`CC[C@H](C)[C@@H]1NC(=O)[C@@H]2CSSC[C@@H]3NC(=O)[C@H](C(C)C)NC(=O)[C@H](CC(C)C)NC(=O)[C@H](CC(N)=O)NC(=O)[C@@H]4CCCN4C(=O)[C@H](CCCNC(=N)N)NC(=O)[C@H](CSSC[C@H](NC(=O)[C@@H](N)CC(=O)O)C(=O)N[C@@H](CC(C)C)C(=O)NCC(=O)N[C@@H](Cc4ccccc4)C(=O)N[C@@H](CCSC)C(=O)N[C@@H](CCCNC(=N)N)C(=O)N[C@@H](CCCCN)C(=O)N2)NC(=O)[C@H](CSSC[C@@H](C(=O)N[C@@H](CCCCN)C(=O)N[C@@H](Cc2ccc(O)cc2)C(=O)N[C@H](C(=O)N[C@@H](Cc2ccccc2)C(N)=O)C(C)C)NC(=O)[C@H](Cc2c[nH]c4ccccc24)NC(=O)[C@H](CCCCN)NC(=O)[C@H](Cc2cnc[nH]2)NC(=O)[C@H](C)NC(=O)[C@H](CCCNC(=N)N)NC(=O)[C@H](CO)NC3=O)NC(=O)[C@H](CCCCN)NC(=O)[C@H](CC(=O)O)NC(=O)[C@H](CC(N)=O)NC(=O)[C@H](CC(=O)O)NC(=O)[C@@H]2CCCN2C1=O` [compound 10] (H-DCLGFMRKCIPDNDKCCRPNLVCSRAHKWCKYVF-NH2; disulfide 2-17, 9-23, 16-30): the IC50 on hNav1.3 (Table 22, use, […]) amounted to 170 nM; against hNav1.5 (IWQ Use Nav1.5 (μM)), 10.5 µM; on hNav1.7 (Table 22, IonWorks Quattro, use, […], read-out: IWQ Use Nav1.7), 250 nM.

As to `CC[C@H](C)[C@@H]1NC(=O)[C@@H]2CSSC[C@@H]3NC(=O)[C@H](C(C)C)NC(=O)[C@H](CC(C)C)NC(=O)[C@H](CC(N)=O)NC(=O)[C@@H]4CCCN4C(=O)[C@H](CCCNC(=N)N)NC(=O)[C@H](CSSC[C@H](NC(=O)[C@@H](N)CC(=O)O)C(=O)N[C@@H](CC(C)C)C(=O)NCC(=O)N[C@@H](Cc4ccccc4)C(=O)N[C@@H](CCSC)C(=O)N[C@@H](CCCNC(=N)N)C(=O)N[C@@H](CCCCN)C(=O)N2)NC(=O)[C@H](CSSC[C@@H](C(=O)N[C@@H](CCCCN)C(=O)N[C@@H](Cc2ccc(O)cc2)C(=O)N[C@H](C(=O)N[C@@H](Cc2ccccc2)C(N)=O)C(C)C)NC(=O)[C@H](Cc2c[nH]c4ccccc24)NC(=O)[C@H](CCCCN)NC(=O)[C@H](C)NC(=O)[C@H]([C@@H](C)O)NC(=O)[C@H](CCCNC(=N)N)NC(=O)[C@H](CO)NC3=O)NC(=O)[C@H](CCCCN)NC(=O)[C@H](CC(=O)O)NC(=O)[C@H](CC(N)=O)NC(=O)[C@H](CC(=O)O)NC(=O)[C@@H]2CCCN2C1=O` [compound 11] (H-DCLGFMRKCIPDNDKCCRPNLVCSRTAKWCKYVF-NH2; disulfide 2-17, 9-23, 16-30), the IC50 was found to be 1150 nM at hNav1.3 (Table 23, use, […]); 14.7 µM on hNav1.5 (Table 23, IonWorks Quattro, use, […], read-out: IWQ Use Nav1.5); 950 nM on hNav1.7.
